Assay results as given in US20260200982A1, “HER RECEPTOR DERIVED PEPTIDES AND METHODS OF USE THEREOF” (Ramot at Tel-Aviv University Ltd., priority 2022, published 2026).
The star is where a group is joined. Myristoyl = CCCCCCCCCCCCCC(=O)*

Test system: Panc-1 cells
Assay: Colony formation assay, Panc-1
Assay type: cell-based, human
Settings: 8 μM, 72 hours, FIG. 8
Procedure: Colony formation assay—Cells were plated onto 12-well plate (6×10^4 cells/well) and treated with either PBS or myr-NLS at the IC50 concentration for 3 days. Cells were collected and replated in 10-cm plates (at 3 dilutions of 1:10, 1:20 and 1:40). After 7-14 days when visible and yet separated colonies were formed, the cells were fixed with 0.1% acetic acid in PBS, and stained with 0.4% crystal violet in 0.1% acetic acid. Total colonies area was calculated using the ImageJ program.
In order to test the effect of myr-NLS on cell tumorigenicity, a colony formation assay was performed. To this end, Panc-1 and MIA PaCa-2 cells were treated or untreated for 72 hours with IC50 dose of myr-NLS (SEQ ID NO: 5, 8 μM and 4.5 μM respectively). Cells were then seeded at the same dilutions in new plates until colonies were formed.

Question: For “Myr-RRRHIVRKRTLRRLL-OH (Myristoyl-RRRHIVRKRTLRRLL-OH; SMILES CCCCCCCCCCCCCC(=O)N[C@@H](CCCNC(=N)N)C(=O)N[C@@H](CCCNC(=N)N)C(=O)N[C@@H](CCCNC(=N)N)C(=O)N[C@@H](Cc1c[nH]cn1)C(=O)N[C@H](C(=O)N[C@H](C(=O)N[C@@H](CCCNC(=N)N)C(=O)N[C@@H](CCCCN)C(=O)N[C@@H](CCCNC(=N)N)C(=O)N[C@H](C(=O)N[C@@H](CC(C)C)C(=O)N[C@@H](CCCNC(=N)N)C(=O)N[C@@H](CCCNC(=N)N)C(=O)N[C@@H](CC(C)C)C(=O)N[C@@H](CC(C)C)C(=O)O)[C@@H](C)O)C(C)C)[C@@H](C)CC) [myr-NLS]”, which “colony formation (total colonies area)” value is on record?
Answer: fewer and smaller colonies
